Where “and” joins values, the source holds several entries; their conditions need not be identical. Identical values can stand only once.
Molecular target: T1, Mushroom tyrosinase (Agaricus bisporus, UniProt O42713+Q00024+C7FF04+C7FF05)
Test: Inhibition of mushroom tyrosinase using L-DOPA as substrate preincubated for 10 mins
Format: protein assay

Row | Structure (SMILES) | IC50 [µM]
1 | CCCCCn1nc(-c2ccccc2)n(CC(=O)NNC(=O)Nc2ccc(Cl)cc2Cl)c1=O | 0.001
2 | O=C(CSc1nnc(-c2ccccc2)n1-c1ccc(F)cc1)Nc1ccc(Br)cc1 | 0.142
3 | O=C(CSc1nnc(-c2ccc(F)cc2)n1-c1ccc(F)cc1)Nc1ccccc1 | 0.124
4 | O=c1cc(O)oc(CSc2nnc(-c3ccccc3)n2NCc2ccc(O)cc2O)c1 | 1.35
5 | Nn1c(SCc2cc(=O)c(O)co2)nnc1-c1ccc(Cl)cc1 | 4.5
6 | Nn1c(SCc2cc(=O)c(O)co2)nnc1-c1ccccc1Cl | 5.35
7 | Nn1c(SCc2cc(=O)c(O)co2)nnc1-c1ccccc1 | 7.45
8 | Cn1cnnc1SCc1cc(=O)c(O)co1 | 19.18
9 | O=C(CSc1nnc(-c2ccccc2F)n1-c1ccc(F)cc1)Nc1ccccc1 | 0.11
10 | Nn1c(SCc2cc(=O)c(O)co2)nnc1-c1ccccc1Br | 5.98
11 | O=c1cc(O)oc(CSc2nnc(-c3ccccc3Cl)n2/N=C/c2ccc(O)c(O)c2)c1 | 5.2
12 | Cc1nnc(SCc2cc(=O)c(O)co2)n1N | 91.03
13 | Cc1ccc(-c2nnc(SCc3cc(=O)c(O)co3)n2N)cc1 | 6.25

Molecular target: T1, Mushroom tyrosinase
Test: Inhibition of mushroom tyrosinase using L-DOPA as substrate preincubated for 10 mins followed by substrate addition and measured after 15 mins by spectrophotometric method
Format: protein assay

Row | Structure (SMILES) | IC50 [µM]
14 | CCc1ccc(CNC(=O)CSc2nnc(Cc3csc(N)n3)n2-c2ccccc2)cc1 | 0.122
15 | Cc1cccc(C)c1CNC(=O)CSc1nnc(Cc2csc(N)n2)n1-c1ccccc1 | 0.05
16 | Cc1ccc(CNC(=O)CSc2nnc(Cc3csc(N)n3)n2-c2ccccc2)cc1C | 0.113
17 | Cc1cccc(CNC(=O)CSc2nnc(Cc3csc(N)n3)n2-c2ccccc2)c1C | 2.01
18 | Cc1ccccc1CNC(=O)CSc1nnc(Cc2csc(N)n2)n1-c1ccccc1 | 0.015
19 | Cc1cc(C)cc(CNC(=O)CSc2nnc(Cc3csc(N)n3)n2-c2ccccc2)c1 | 0.24
20 | Nc1nc(Cc2nnc(SCC(=O)NCCc3ccccc3)n2-c2ccccc2)cs1 | 0.01

Molecular target: T1, Mushroom tyrosinase
Test: Inhibition of mushroom tyrosinase using L-DOPA as substrate pre-treated for 10 mins followed by substrate addition measured for 20 mins by spectrophotometric analysis
Format: protein assay

Row | Structure (SMILES) | IC50 [µM]
21 | CCn1c(Cc2csc(N)n2)nnc1SCc1ccccc1Cl | 0.006
22 | CCn1c(Cc2csc(N)n2)nnc1SCc1cccc(Br)c1 | 0.002
23 | CCn1c(Cc2csc(N)n2)nnc1SCc1ccc(Cl)cc1Cl | 0.001
24 | Cc1ccccc1CNC(=O)CSc1nnc(Cc2csc(N)n2)n1-c1ccccc1 | 16.832
25 | CCn1c(Cc2csc(N)n2)nnc1SCc1ccc(Cl)cc1 | 0.006

Molecular target: T1, Mushroom tyrosinase
Test: Inhibition of mushroom tyrosinase
Format: protein assay

Row | Structure (SMILES) | IC50 [µM]
26 | CCn1c(CCCc2c[nH]c3ccccc23)nnc1SCC(=O)Nc1c(C)cccc1C | 0.035
27 | CCOc1ccc(NC(=O)CSc2nnc(CCCc3c[nH]c4ccccc34)n2CC)cc1 | 0.072
28 | NC(=S)N/N=C/c1ccc(OCc2cn(CC(=O)NCc3ccccc3)nn2)cc1 | 0.11
29 | O=C1N=C(Nc2ccccc2)S/C1=C\c1ccccc1OCc1cn(Cc2ccccc2)nn1 | 8.92
30 | COc1ccccc1-n1c(SCC(=O)Nc2ccccc2)nnc1-c1ccccc1 | 0.0238
31 | CCn1c(CCCc2c[nH]c3ccccc23)nnc1SCC(=O)Nc1ccc(C)cc1C | 0.034
32 | O=C1N=C(Nc2ccncc2)S/C1=C\c1ccccc1OCc1cn(Cc2ccc(Cl)c(Cl)c2)nn1 | 5.9
33 | O=C1N=C(Nc2ccccc2)S/C1=C\c1ccc(OCc2cnnn2Cc2ccc(Cl)c(Cl)c2)cc1 | 49.4
34 | COc1ccc2c(c1)CC/C(=C\c1ccc(OCc3cn(Cc4cccc(Cl)c4)nn3)c(OC)c1)C2=O | 4.64
35 | CCn1c(CCCc2c[nH]c3ccccc23)nnc1SCC(=O)Nc1ccccc1C | 0.036
36 | COc1ccccc1-n1c(SCC(=O)Nc2ccc(Br)cc2)nnc1-c1ccccc1F | 0.0048
37 | Cc1ccc(Cn2cc(COc3ccc(-c4nc5ccccc5[nH]4)cc3)nn2)cc1C | 9.42
38 | COc1cc(/C=N/Nc2nnc(S)n2N)ccc1O | 14.6
39 | C=CCc1ccc(O)c(OC)c1 [EUGENOL] | 923
40 | COc1cc(C=O)ccc1O [VANILLIN] | 4103
41 | Cc1ccc2nc(-c3ccc(OCc4cn(Cc5ccccc5)nn4)cc3)[nH]c2c1 | 43.3
42 | Nn1c(S)nnc1N/N=C/c1cccc(C(F)(F)F)c1 | 9
43 | Nn1c(S)nnc1N/N=C/c1cccc(Cl)c1 | 15
44 | CCc1ccccc1NC(=O)CSc1nnc(CCCc2c[nH]c3ccccc23)n1CC | 0.033
45 | Cc1ccc(Cn2cc(COc3ccc(-c4nc5ccccc5[nH]4)cc3)nn2)cc1 | 10.34
46 | COc1ccc2c(c1)CC/C(=C\c1ccc(OCc3cn(Cc4ccccc4F)nn3)c(OC)c1)C2=O | 67.18
47 | CCn1c(CCCc2c[nH]c3ccccc23)nnc1SCC(=O)Nc1cccc(C)c1C | 0.142
48 | O=C1N=C(Nc2ccccc2)S/C1=C\c1ccccc1OCc1cn(Cc2cccc(Br)c2)nn1 | 9.81
49 | O=C1N=C(Nc2ccncc2)S/C1=C\c1ccccc1OCc1cn(Cc2ccccc2Cl)nn1 | 6.34
50 | COc1ccc(/C=N/Nc2nnc(S)n2N)cc1O | 3.4

Molecular target: T2, Mushroom tyrosinase (Agaricus bisporus) (UniProt O42713+Q00024+C7FF04+C7FF05)
Test: Inhibition of mushroom tyrosinase at 100 uM relative to control
Format: protein assay

Row | Structure (SMILES) | inhibition [%]
51 | Nn1c(S)nnc1N/N=C/c1cccc(C(F)(F)F)c1 | 95
52 | Nn1c(S)nnc1N/N=C/c1cccc(Cl)c1 | 81
53 | COc1ccc(/C=N/Nc2nnc(S)n2N)cc1O | 98

Molecular target: T1, Mushroom tyrosinase
Test: Inhibition of mushroom tyrosinase using L-dopa as substrate by spectrophotometric method
Format: protein assay

Row | Structure (SMILES) | IC50 [µM]
54 | Nn1c(S)nnc1N/N=C\c1cccc(O)c1 | 7
55 | Nn1c(S)nnc1N/N=C\c1cccc(F)c1 | 12.5
56 | Nn1c(S)nnc1N/N=C\c1ccccc1O | 1.52

Molecular target: T1, Mushroom tyrosinase
Test: Inhibition of mushroom tyrosinase using L-DOPA as substrate incubated for 20 mins
Format: protein assay

Row | Structure (SMILES) | IC50 [µM]
57 | Oc1ccc(/C=N/n2c(Cc3ccccc3F)n[nH]c2=S)cc1 | 6.23
58 | Oc1ccccc1Cc1n[nH]c(=S)n1/N=C/c1ccc[nH]1 | 26.02
59 | COc1ccccc1Cc1n[nH]c(=S)n1/N=C/Cc1ccc(O)cc1 | 20.27
60 | Fc1ccc(/C=N/n2c(Cc3ccccc3F)n[nH]c2=S)cc1 | 10.09

Molecular target: T1, Mushroom tyrosinase
Test: Inhibition of mushroom tyrosinase by spectrophotometric method
Format: protein assay

Row | Structure (SMILES) | IC50 [µM]
61 | CCCCCn1nc(-c2ccccc2)n(CC(=O)NNC(=O)Nc2ccccc2C(F)(F)F)c1=O | 0.001
62 | CCCCCn1nc(-c2ccccc2)n(CC(=O)NNC(=O)Nc2cccc(C(F)(F)F)c2)c1=O | 0.001
63 | CCCCCn1nc(-c2ccccc2)n(CC(=O)NNC(=O)Nc2cc(C(F)(F)F)cc(C(F)(F)F)c2)c1=O | 0.001

Molecular target: T1, Mushroom tyrosinase
Test: Binding affinity to mushroom tyrosinase assessed as inhibition constant
Format: protein assay

Row | Structure (SMILES) | Ki [µM]
64 | CCCCCn1nc(-c2ccccc2)n(CC(=O)NNC(=O)Nc2ccccc2C(F)(F)F)c1=O | 0.01
65 | CCCCCn1nc(-c2ccccc2)n(CC(=O)NNC(=S)Nc2ccccc2C(F)(F)F)c1=O | 0.1
66 | Cc1cc(C=C2C(=O)NC(=S)NC2=O)c(OCc2cn(Cc3ccc(F)cc3)nn2)cc1Br | 60.27

Molecular target: T3, Tyrosinase (Homo sapiens, UniProt P14679)
T3 sequence (P14679 whole entry): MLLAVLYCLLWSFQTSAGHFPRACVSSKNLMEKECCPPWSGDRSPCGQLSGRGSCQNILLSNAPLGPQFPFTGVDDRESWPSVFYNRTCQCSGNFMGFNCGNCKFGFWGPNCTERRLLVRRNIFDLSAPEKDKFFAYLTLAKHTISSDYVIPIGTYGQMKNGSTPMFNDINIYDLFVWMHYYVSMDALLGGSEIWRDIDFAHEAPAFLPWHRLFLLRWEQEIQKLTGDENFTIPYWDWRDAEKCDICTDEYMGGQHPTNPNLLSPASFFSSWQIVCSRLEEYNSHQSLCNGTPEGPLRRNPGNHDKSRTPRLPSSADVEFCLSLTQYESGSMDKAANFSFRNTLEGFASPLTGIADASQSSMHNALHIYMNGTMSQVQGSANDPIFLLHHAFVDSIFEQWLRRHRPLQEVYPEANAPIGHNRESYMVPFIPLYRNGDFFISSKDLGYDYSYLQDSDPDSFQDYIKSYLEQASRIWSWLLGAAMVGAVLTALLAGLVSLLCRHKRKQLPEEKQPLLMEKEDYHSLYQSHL
Test: Inhibition of C-terminal His-tagged truncated form of human tyrosinase using L-DOPA as substrate by spectrophotometric assay

Row | Structure (SMILES) | IC50 [µM]
67 | O=C1c2ccccc2C(=O)N1Cc1cn(Cc2ccccc2Cl)nn1 | 47.2
68 | O=C1NC(=S)NC(=O)C1=Cc1ccccc1OCc1cn(Cc2ccc(Br)cc2)nn1 | 44.2
69 | O=C1c2ccccc2C(=O)N1Cc1cn(Cc2ccccc2Br)nn1 | 26.5
70 | O=C1c2ccccc2C(=O)N1Cc1cn(Cc2cccc(Cl)c2)nn1 | 48.3
71 | O=C1c2ccccc2C(=O)N1Cc1cn(Cc2ccccc2[N+](=O)[O-])nn1 | 26.2
72 | O=C1c2ccccc2C(=O)N1Cc1cn(Cc2ccc(Br)cc2)nn1 | 40.3

Molecular target: T2, Mushroom tyrosinase (Agaricus bisporus)
Test: (§1) Inhibition of mushroom tyrosinase using L-DOPA as substrate incubated for 15 mins by spectrophotometric analysis
Format: protein assay

Row | Structure (SMILES) | inhibition [%]
73 | O=c1oc2ccccc2c2nn(Cc3cn(-c4c(Cl)cc(Cl)cc4Cl)nn3)cc12 | 58
74 | O=c1oc2ccccc2c2c1cnn2Cc1cn(-c2ccccc2)nn1 | 85
75 | O=c1oc2ccccc2c2nn(Cc3cn(-c4ccccc4)nn3)cc12 | 69

Molecular target: T1, Mushroom tyrosinase
Test: as §1
Format: protein assay

Row | Structure (SMILES) | IC50
76 | Cc1cc(C=C2C(=O)NC(=S)NC2=O)c(OCc2cn(Cc3ccc(F)cc3)nn2)cc1Br | 24.6 µM
77 | O=C1NC(=O)C(=Cc2ccccc2OCc2cn(Cc3ccccc3)nn2)C(=O)N1 | 44.2 µM
78 | O=C1NC(=O)C(=Cc2ccccc2OCc2cn(Cc3ccc(Br)cc3)nn2)C(=O)N1 | 26.8 µM and 49.1 µM
79 | O=C1NC(=S)NC(=O)C1=Cc1ccccc1OCc1cn(Cc2ccccc2)nn1 | 44.2 µM

Molecular target: T1, Mushroom tyrosinase
Test: Inhibition of mushroom tyrosinase using L-DOPA as substrate measured for 15 mins by spectrophotometer analysis
Format: protein assay

Row | Structure (SMILES) | IC50 [µM]
80 | COc1ccc(NC(=O)Cn2cc(COc3ccc(/C=N/NC(N)=S)cc3)nn2)cc1 | 0.25
81 | Cc1c(NC(=O)Cn2cc(COc3ccc(/C=N/NC(N)=S)cc3)nn2)cccc1[N+](=O)[O-] | 0.12

Molecular target: T3, Tyrosinase
Test: Competitive inhibition of His-tagged human tyrosinase expressed in HEK293 cells
Format: cell-based

Row | Structure (SMILES) | IC50 [µM]
82 | NC(=S)N/N=C/c1ccc(OCc2cn(Cc3ccc(F)cc3)nn2)cc1 | 0.22
83 | Cc1cccc(Cn2cc(COc3ccc(/C=N/NC(N)=S)cc3)nn2)c1 | 0.22
84 | Cc1ccc(Cn2cc(COc3ccc(/C=N/NC(N)=S)cc3)nn2)cc1 | 0.22
85 | NC(=S)N/N=C/c1ccc(OCc2cn(Cc3ccc(Cl)c(Cl)c3)nn2)cc1 | 0.22

Molecular target: T1, Mushroom tyrosinase
Test: Inhibition of mushroom tyrosinase using L-DOPA as substrate preincubated for 20 mins followed by substrate addition incubated for 10 mins by absorbance based analysis
Format: protein assay

Row | Structure (SMILES) | IC50 [µM]
86 | Cc1ccc(C(C)C)c(OCc2cn(Cc3cc(=O)c(O)co3)nn2)c1 | 0.69
87 | COc1cc(C(C)=O)ccc1OCc1cn(Cc2cc(=O)c(O)co2)nn1 | 0.03
88 | O=c1cc(Cn2cc(COc3ccc4c(c3)OCO4)nn2)occ1O | 0.06
89 | Cc1ccc(C(C)C)cc1OCc1cn(Cc2cc(=O)c(O)co2)nn1 | 0.07
90 | O=c1ccc2ccc(OCc3cn(Cc4cc(=O)c(O)co4)nn3)cc2o1 | 0.23
91 | O=c1cc(OCc2cn(Cc3cc(=O)c(O)co3)nn2)c2ccccc2o1 | 0.02
